Data as given in patent publication US20170306409A1, “CANCER PATIENT SELECTION FOR ADMINISTRATION OF WNT SIGNALING INHIBITORS USING RNF43 MUTATION STATUS” (NOVARTIS AG, priority 2012, published 2017).

Assays:
Format in all cases: cell-based, human
HuPT3 = experiment: foci formation assay; conditions: 1 μM LGK974
Protocol: (§1) To assay foci formation, 6,000˜12,000 cells of indicated cell lines were seeded in 6 well tissue culture plate in 2 ml growth media. After overnight culture for cell attachment, media was replaced with fresh growth media containing 1 μM LGK974 in the absence and presence of recombinant Wnt3a. For DOX-inducible β-catenin shRNA experiment, cells were treated 5 ng/ml doxycycline. When cell colonies reached desirable size, cells were fixed with 4% formalin in PBS and stained with crystal violet solution. After a few washes, plates were dried and imaged.
(§2) Identification of pancreatic cancer lines containing inactivation mutation of RNF43. Discovery of LGK974, a potent and selective inhibitor of Porcupine, offered us a unique chemical tool to systemically examine Wnt dependency in a large panel of cancer cell lines. We tested LGK974 in a large panel of pancreatic cancer cell lines using foci formation assay. Foci formation assay was utilized because it is more sensitive than routine growth assays such as CellTiter-Glo, and it is less affected by the different growth rates of various cell lines.

Capan-1 = experiment: foci formation assay; conditions: 1 μM LGK974
Protocol: as §1, §2

SW1990 = experiment: foci formation assay; conditions: 1 μM LGK974
Protocol: as §1, §2

YAPC = experiment: foci formation assay; conditions: 1 μM LGK974
Protocol: as §1, §2

Pan02.03 = experiment: foci formation assay; conditions: 1 μM LGK974
Protocol: as §1, §2

MIA CaPa-2 = experiment: foci formation assay; conditions: 1 μM LGK974
Protocol: as §1, §2

PK59 = experiment: foci formation assay; conditions: 1 μM LGK974
Protocol: as §1, §2

SUIT-2 = experiment: foci formation assay; conditions: 1 μM LGK974
Protocol: as §1, §2

PaTu-8988S [1] = experiment: foci formation assay; conditions: 1 μM LGK974
Protocol: as §1, §2

Hs766T = experiment: foci formation assay; conditions: 1 μM LGK974
Protocol: as §1, §2

HPAFII = experiment: soft agar assay; conditions: 1 μM LGK974
Protocol: (§3) Further, LGK974 induced the expression of differentiation marker MUC2, MUC5A/C in RNF43 mutant cells. LGK974 blocked EDU incorporation in RNF43 mutant cell lines, so Wnt inhibition in these cells leads to cell cycle arrest. LGK974-induced growth inhibition and cellular differentiation of RNF43 mutant cells are also obvious using Ki67 staining (anti-Ki67 (SP6) from Vector Laboratories, Burlingame, Calif., USA 94010) and Alcian Blue staining.
(§4) For soft agar assay, cells were suspended in 250 μl of 0.3% low melting agarose (Lonza) in DMEM containing 10% FBS, and plated onto 250 μl of solidified 0.8% agarose containing DMEM in 48-well culture plates at a density of 5,000-10,000 cells per well. 250 μl of growth medium were added on top of the cells after plate was cooled at Rt for 30 minutes. The plate was then incubated at 37° C. in a humidified atmosphere containing 5% CO2. The cells were treated with fresh growth medium containing DMSO or 1 μM LGK974 every 3-4 days. When colonies reached desirable size, photographs were taken and colonies were stained with AlamarBlue (from Invitrogen, Life Technologies, Grand Island, N.Y., USA 14072) according to the manufacturer's instruction. These experiments were repeated three times, and at least four wells were replicated each time for each condition.

PaTu-8988S [2] = experiment: soft agar assay; conditions: 1 μM LGK974
Protocol: as §3, §4

PK1 = experiment: soft agar assay; conditions: 1 μM LGK974
Protocol: as §3, §4

RNF43 mutant cell lines = experiment: immunoblot and qPCR assays
Protocol: (§5) For reverse transcription and quantitative PCR (qPCR), total RNA was extracted from cells or tumors using the RNeasy Plus Mini Kit (Qiagen). 1 μg of RNA were reverse transcribed with Taqman Reverse Transcription Reagents (Applied Biosystems) according to the manufacturer's instruction. Quantitative PCR was performed in 12 μl reactions consisting of 0.6 μl of 20× Taqman probe and PCR primer mix, 6 μl 2× Taqman FAST Advanced Master Mix (Applied Biosystems), and 5.4 μl diluted cDNA template. The thermocycling conditions utilized were 20 seconds at 95° C., followed by 40 cycles of 1 second at 95° C. and 20 seconds at 60° C. All experiments were performed in quadruplicates. Gene expression analysis was performed using the comparative ΔΔCT method and normalized with the housekeeping gene GUSB or 18S. The Taqman probes were purchased from Applied Biosystems.
(§6) We next characterized Wnt-dependency in pancreatic cancer cell lines.
(§7) For immunoblotting, total cell lysates were prepared by lysing cells using RIPA buffer (50 mM Tris-HCl, pH 7.4, 150 mM NaCl, 1% NP-40, 0.5% sodium deoxycholate, 0.1% SDS, 1 mM EDTA) supplemented with protease inhibitors and phosphatase inhibitors, followed by centrifugation at 14,000 rpm for 10 min at 4° C. For cytosolic β-catenin extraction, cell pellets were resuspended in hypotonic buffer (10 mM Tris-HCl, pH 7.5 and 10 mM KCl, supplemented with protease/phosphatase inhibitors) and lysed by three freeze-thaw cycles. Equal amount of proteins were resolved by SDS-PAGE, transferred to nitrocellulose membranes, and incubated with primary antibodies for overnight at 4° C. Secondary antibodies conjugated with either HRP or infrared dyes were used for signal visualization by ECL film or LI-COR Odyssey scanner, respectively.

[3] = test system: RNF43 wild-type cell lines; experiment: immunoblot and qPCR assays
Protocol: as §5, §6, §7

RNF43 mRNA, YAPC cells = experiment: quantitative RT-PCR gene expression analysis; conditions: 1 μM of LGK974
Protocol: FIG. 4(a) is a bar graph showing that the depletion of β-catenin decreases mRNA level of AXIN2 and RNF43. Cells were treated with siRNA, and relative mRNA levels of indicated genes were analyzed by quantitative RT-PCR. […] YAPC cells were treated with 3 μM of IWP2 or 1 μM of LGK974, and subjected to gene expression analysis by quantitative RT-PCR.
as §5
Consistent with this observation, treatment of Porcupine inhibitor IWP2 or LGK974 increased the cell surface level of Frizzled and decreased the mRNA levels of AXIN2 and RNF43. See, FIG. 4(b). […]

Cc1cc(-c2ncc(CC(=O)Nc3ccc(-c4cnccn4)cn3)cc2C)ccn1 [LGK974, 2-[5-methyl-6-(2-methylpyridin-4-yl)pyridin-3-yl]-N-[5-(pyrazin-2-yl)pyridin-2-yl]acetamide]
Growth inhibition in foci formation assay (HuPT3): No
Growth inhibition in foci formation assay (Capan-1): No
Growth inhibition in foci formation assay (SW1990): No
Growth inhibition in foci formation assay (YAPC): without significant effect and No
Growth inhibition in foci formation assay (Pan02.03): No
Growth inhibition in foci formation assay (MIA CaPa-2): No
Growth inhibition in foci formation assay (PK59): No
Growth inhibition in foci formation assay (SUIT-2): No
Growth inhibition in foci formation assay (PaTu-8988S [1]): strong growth inhibitory activity and strongly inhibited and Yes
Growth inhibition in foci formation assay (Hs766T): No
proliferation in soft agar assay (HPAFII): strongly inhibited
proliferation in soft agar assay (PaTu-8988S [2]): strongly inhibited
proliferation in soft agar assay (PK1): not
cytosolic β-catenin (RNF43 mutant cell lines; RNF43 mutant cell lines): decreased
expression of MYC (RNF43 mutant cell lines; RNF43 mutant cell lines): decreased
expression of cyclin dependent kinase inhibitor p21 (RNF43 mutant cell lines; RNF43 mutant cell lines): increased
expression of β-catenin target gene AXIN2 (RNF43 mutant cell lines; RNF43 mutant cell lines): decreased
expression of differentiation marker MUC2, MUC5A/C (RNF43 mutant cell lines; RNF43 mutant cells): induced
cytosolic β-catenin [3]: decreased
expression of MYC [3]: not
expression of cyclin dependent kinase inhibitor p21 [3]: not
expression of β-catenin target gene AXIN2 [3]: decreased
mRNA level of RNF43 (RNF43 mRNA, YAPC cells): decreased
